From patent US9198426B2, “Use of 5 pyridin-4-yl-1,3-thiazoles for controlling phytopathogenic fungi” (Bayer Intellectual Property GmbH, priority 2008, dated 2015)
Marks after values point to notes of the source that are not given here.

Key:
physchem = type: physicochemical
Fusarium proliferatum = experiment: Production of fumonisin FB1 by Fusarium proliferatum (microtitre plates); type: cell-based; settings: 120 h, 5 days, 20° C., HPLC-MS/MS
Fusarium graminearum = experiment: microbe, parasite or virus in culture; type: cell-based; settings: 168 h, read-out: activity in the inhibition of DON/AcDON production

Structure (SMILES)	log p (physchem; pH 2.7)	log p (physchem; pH 7.8)	further results
O=C(c1ccc(Cl)s1)C(Br)c1ccncc1 (centres unmarked) [2-Bromo-1-(5-chloro-2-thienyl)-2-(pyridin-4-yl)ethanone]	–	–	chromatographic logP (physchem; pH 2.7): 2.18
CCc1nc(-c2ccc(F)cc2)c(-c2ccnc(N)c2)s1 [Ex. 35, 4-[2-Ethyl-4-(4-fluorophenyl)-1,3-thiazol-5-yl]pyridine-2-amine]	–	–	chromatographic logP (physchem; pH 2.7): 1.29
CCc1nc(-c2ccc(F)cc2)c(-c2ccncc2)s1 [Ex. 41, 4-[2-Ethyl-4-(4-fluorophenyl)-1,3-thiazol-5-yl]pyridine]	–	–	chromatographic logP (physchem; pH 2.3): 2.01; chromatographic logP (physchem; pH 7.8): 2.89; inhibition at 50 µM (Fusarium proliferatum): > 70%; inhibition at 50 µM (Fusarium graminearum): > 70%
CCc1nc(-c2ccc(F)cc2)c(-c2ccnc(Cl)c2)s1 [Ex. 58, 2-Chloro-4-[2-ethyl-4-(4-fluorophenyl)-1,3-thiazol-5-yl]pyridine]	–	–	chromatographic logP (physchem; pH 2.7): 4.07; chromatographic logP (physchem; pH 7.8): 4.1
CCc1nc(-c2ccc(F)cc2)c(-c2ccnc(NCc3ccccc3)c2)s1 [Ex. 59, N-Benzyl-4-[2-ethyl-4-(4-fluorophenyl)-1,3-thiazol-5-yl]pyridine-2-amine]	–	–	chromatographic logP (physchem; pH 2.7): 2.32
CCc1nc(-c2ccc(F)cc2)c(-c2ccnc(NC3CC3)c2)s1 [Ex. 72, N-Cyclopropyl-4-[2-ethyl-4-(4-fluorophenyl)-1,3-thiazol-5-yl]pyridine-2-amine]	–	–	chromatographic logP (physchem; pH 2.7): 1.74; chromatographic logP (physchem; pH 7.8): 3.61
CCc1nc(-c2ccc(F)cc2)c(-c2ccnc(C(=O)NC3CC3)c2)s1 [Ex. 75, N-Cyclopropyl-4-[2-ethyl-4-(4-fluorophenyl)-1,3-thiazol-5-yl]pryridine-2-carboxamide]	3.46^[b]	3.5^[c];	–
CCc1nc(-c2ccc(F)cc2)c(-c2ccnc(N(C(C)=O)C3CC3)c2)s1 [Ex. 80, N-Cyclopropyl-N-{4-[2-ethyl-4-(4-fluorophenyl)-1,3-thiazol-5-yl]pyridin-2-yl}acetamide]	–	–	chromatographic logP (physchem; pH 2.7): 2.81; chromatographic logP (physchem; pH 7.8): 2.88
CCCC(=O)Nc1cc(-c2sc(CC)nc2-c2ccc(F)cc2)ccn1 [Ex. 83, N-{4-[2-Ethyl-4-(4-fluorophenyl)-1,3-thiazol-5-yl]pyridin-2-}butanamide]	3.45^[b]	3.58^[c];	–
CCc1nc(-c2ccc(F)cc2)c(-c2ccnc(C)c2)s1 [Ex. 96, 4-[2-Ethyl-4-(4-fluorophenyl)-1,3-thiazol-5-yl]-2-methylpyridine]	–	–	chromatographic logP (physchem; pH 2.7): 1.68
Cc1cc(-c2sc(C(C)C)nc2-c2ccc(F)cc2)ccn1 [Ex. 100, 4-[4-(4-Fluorophenyl)-2-isopropyl-1,3-thiazol-5-yl]-2-methylpyridine]	–	–	chromatographic logP (physchem; pH 2.7): 2.1; chromatographic logP (physchem; pH 7.8): 4.06
CCc1nc(-c2ccc(Cl)s2)c(-c2ccncc2)s1 [compound 42]	3.06^[b]	3.88^[c];	–
CC(C)c1nc(-c2ccc(F)cc2)c(-c2ccncc2)s1 [compound 43]	2.56^[b]	3.71^[c];	–
Cc1nc(-c2ccc(F)cc2)c(-c2ccncc2)s1 [compound 44]	1.48^[b]	–	–
Fc1ccc(-c2nc(Cc3ccccc3)sc2-c2ccncc2)cc1 [compound 45]	2.94^[b]	–	–
CC(C)(C)c1nc(-c2ccc(F)cc2)c(-c2ccncc2)s1 [compound 46]	3.29^[b]	–	–
CCCCc1nc(-c2ccc(F)cc2)c(-c2ccncc2)s1 [compound 47]	3.11^[b]	–	–
CCc1nc(-c2ccc(C)c(C)c2)c(-c2ccncc2)s1 [compound 48]	2.49^[b]	–	–
CCc1nc(-c2cccc(C(F)(F)F)c2)c(-c2ccncc2)s1 [compound 49]	3^[b]	–	–
CCc1nc(-c2ccc(F)cc2)c(-c2ccnc(NC(=O)c3ccc(C)cc3)c2)s1 [compound 50]	4.48^[b]	–	–
CCc1nc(-c2ccc(F)cc2)c(-c2ccnc(NC(=O)C(C)(C)C)c2)s1 [compound 51]	4.18^[b]	–	–
CCc1nc(-c2ccc(F)cc2)c(-c2ccnc(NC(=O)c3ccc(F)cc3)c2)s1 [compound 52]	4.18^[b]	–	–

Structure (SMILES)	log p (physchem; pH 2.7)	log p (physchem; pH 7.8)	further results
CCc1nc(-c2ccc(F)cc2)c(-c2ccnc(NC(=O)c3ccc(OC)cc3)c2)s1 [compound 53]	4.04^[b]	–	–
CCc1nc(-c2ccc(F)cc2)c(-c2ccnc(NC(=O)C3CCCCC3)c2)s1 [compound 54]	4.54^[b]	–	–
CCc1nc(-c2ccc(F)cc2)c(-c2ccnc(NC(=O)CCc3ccccc3)c2)s1 [compound 55]	4.23^[b]	–	–
CCc1nc(-c2ccc(F)cc2)c(-c2ccnc(NC(=O)c3cccs3)c2)s1 [compound 56]	3.92^[b]	–	–
CCc1nc(-c2ccc(F)cc2)c(-c2ccnc(NC(=O)c3ccsc3)c2)s1 [compound 57]	3.83^[b]	–	–
CCc1nc(-c2ccc(F)cc2)c(-c2ccnc(Nc3ccccc3)c2)s1 [compound 60]	3.1^[b]	–	–
CCc1nc(-c2ccc(F)cc2)c(-c2ccnc(NC(C)c3ccccc3)c2)s1 (centres unmarked) [compound 61]	2.39^[b]	–	–
CCc1nc(-c2ccc(F)cc2)c(-c2ccnc(NCCc3ccccc3)c2)s1 [compound 62]	2.17^[b]	–	–
CCc1nc(-c2ccc(F)cc2)c(-c2ccnc(NC3CCCC3)c2)s1 [compound 63]	1.94^[b]	–	–
CCc1nc(-c2ccc(F)cc2)c(-c2ccnc(N3CCCC3)c2)s1 [compound 64]	2^[b]	–	–
CCc1nc(-c2ccc(F)cc2)c(-c2ccnc(NC(=O)OC(C)(C)C)c2)s1 [compound 65]	4.63^[b]	–	–
CCCCc1nc(-c2ccc(F)cc2)c(-c2ccnc(NC(=O)c3ccccc3)c2)s1 [compound 66]	5.07^[b]	–	–
CCc1nc(-c2ccc(F)cc2)c(-c2ccnc(N(C)C(=O)c3ccccc3)c2)s1 [compound 67]	3.68^[b]	–	–
CCc1nc(-c2ccc(F)cc2)c(-c2ccnc(N(C)C(C)=O)c2)s1 [compound 68]	2.71^[b]	–	–
CCc1nc(-c2ccccc2)c(-c2ccnc(NC(=O)c3ccccc3)c2)s1 [compound 69]	3.91^[b]	–	–
CCc1nc(-c2ccc(F)cc2)c(-c2ccnc(NC(C)COC)c2)s1 (centres unmarked) [compound 70]	1.78^[b]	–	–
CCc1nc(-c2ccc(F)cc2)c(-c2ccnc(NC(C)CO)c2)s1 (centres unmarked) [compound 71]	1.44^[b]	–	–
CCc1nc(-c2ccc(F)cc2)c(-c2ccnc(C(=O)N(C)CC)c2)s1 [compound 73]	2.81^[b]	2.87^[c];	–
C=CCNc1cc(-c2sc(CC)nc2-c2ccc(F)cc2)ccn1 [compound 74]	1.67^[b]	3.8^[c];	–
CCNc1cc(-c2sc(CC)nc2-c2ccc(F)cc2)ccn1 [compound 76]	1.54^[b]	3.64^[c];	–
CCc1nc(-c2ccc(F)cc2)c(-c2ccnc(NCC(C)O)c2)s1 (centres unmarked) [compound 77]	1.44^[b]	2.74^[c];	–
CCc1nc(-c2ccc(F)cc2)c(-c2ccnc(NCC(C)OC)c2)s1 (centres unmarked) [compound 78]	1.73^[b]	3.67^[c];	–

Structure (SMILES)	log p (physchem; pH 2.7)	log p (physchem; pH 7.8)	further results
CCc1nc(-c2ccc(F)cc2)c(-c2ccnc(NCC(F)F)c2)s1 [compound 79]	2.39^[b]	3.76^[c];	–
CCc1nc(-c2ccc(F)cc2)c(-c2ccnc(NC(=O)COC)c2)s1 [compound 81]	3.17^[b]	3.21^[c];	–
CCc1nc(-c2ccc(F)cc2)c(-c2ccnc(NC(=O)C(C)C)c2)s1 [compound 82]	3.52^[b]	3.66^[c];	–
CCc1nc(-c2ccc(F)cc2)c(-c2ccnc(NC(=O)C3CCC3)c2)s1 [compound 84]	3.68^[b]	3.82^[c];	–
CCOC(=O)Nc1cc(-c2sc(CC)nc2-c2ccc(F)cc2)ccn1 [compound 85]	3.61^[b]	3.69^[c];	–
CCc1nc(-c2ccc(F)cc2)c(-c2ccnc(NC(=O)C3CC3)c2)s1 [compound 86]	3.22^[b]	3.37^[c];	–
CCc1nc(-c2ccc(F)cc2)c(-c2ccnc(NC(=O)OC)c2)s1 [compound 87]	3.14^[b]	3.22^[c];	–
Fc1ccc(-c2nc(C(F)F)sc2-c2ccncc2)cc1 [compound 88]	2.48^[b]	3.01^[c];	–
Fc1ccc(-c2nc(C3CC3)sc2-c2ccncc2)cc1 [compound 89]	2.16^[b]	3.32^[c];	–
C=C(C)C(=O)Nc1cc(-c2sc(CC)nc2-c2ccc(F)cc2)ccn1 [compound 90]	3.6^[b]	3.71^[c];	–
CCc1nc(-c2ccc(F)cc2)c(-c2ccnc(NS(C)(=O)=O)c2)s1 [compound 91]	2.36^[b]	2.18^[c];	–
CCc1nc(-c2ccc(F)cc2)c(-c2ccnc(N(S(C)(=O)=O)S(C)(=O)=O)c2)s1 [compound 92]	3.23^[b]	3.24^[c];	–
CCc1nc(-c2ccc(F)cc2)c(-c2ccnc(N(C(=O)OC(C)C)C(=O)OC(C)C)c2)s1 [compound 93]	4.5^[b]	4.49^[c];	–
CCc1nc(-c2ccc(F)cc2)c(-c2ccnc(NC(=O)OC(C)C)c2)s1 [compound 94]	4.08^[b]	4.18^[c];	–
CCc1nc(-c2ccc(F)cc2)c(-c2ccnc(NC(=O)C3(C)CC3)c2)s1 [compound 95]	3.89^[b]	4.03^[c];	–
CCc1nc(-c2ccc(F)cc2)c(-c2ccnc(N(C(C)=O)C(C)=O)c2)s1 [compound 97]	2.95^[b]	2.95^[c];	–
CCc1nc(-c2ccc(F)cc2)c(-c2ccnc(NC(=O)CCl)c2)s1 [compound 98]	3.29^[b]	3.32^[c];	–
CCc1nc(-c2ccc(F)cc2)c(-c2ccnc(NC(=O)CC(C)C)c2)s1 [compound 99]	3.91^[b]	4.04^[c];	–
CCc1nc(-c2ccc(F)cc2)c(-c2ccnc(NC(C)C)c2)s1 [compound 101]	1.73^[b]	4.11^[c];	–
C#CCN(C(C)=O)c1cc(-c2sc(CC)nc2-c2ccc(F)cc2)ccn1 [compound 102]	3.03^[b]	3.02^[c];	–
CCc1nc(-c2cccs2)c(-c2ccncc2)s1 [compound 103]	1.94^[b]	–	–
